The values that follow come from patent US9873704B2, “Heterocyclic compounds and their uses” (Amgen Inc., priority 2009, dated 2018).

T1 sequence (O00329 whole entry): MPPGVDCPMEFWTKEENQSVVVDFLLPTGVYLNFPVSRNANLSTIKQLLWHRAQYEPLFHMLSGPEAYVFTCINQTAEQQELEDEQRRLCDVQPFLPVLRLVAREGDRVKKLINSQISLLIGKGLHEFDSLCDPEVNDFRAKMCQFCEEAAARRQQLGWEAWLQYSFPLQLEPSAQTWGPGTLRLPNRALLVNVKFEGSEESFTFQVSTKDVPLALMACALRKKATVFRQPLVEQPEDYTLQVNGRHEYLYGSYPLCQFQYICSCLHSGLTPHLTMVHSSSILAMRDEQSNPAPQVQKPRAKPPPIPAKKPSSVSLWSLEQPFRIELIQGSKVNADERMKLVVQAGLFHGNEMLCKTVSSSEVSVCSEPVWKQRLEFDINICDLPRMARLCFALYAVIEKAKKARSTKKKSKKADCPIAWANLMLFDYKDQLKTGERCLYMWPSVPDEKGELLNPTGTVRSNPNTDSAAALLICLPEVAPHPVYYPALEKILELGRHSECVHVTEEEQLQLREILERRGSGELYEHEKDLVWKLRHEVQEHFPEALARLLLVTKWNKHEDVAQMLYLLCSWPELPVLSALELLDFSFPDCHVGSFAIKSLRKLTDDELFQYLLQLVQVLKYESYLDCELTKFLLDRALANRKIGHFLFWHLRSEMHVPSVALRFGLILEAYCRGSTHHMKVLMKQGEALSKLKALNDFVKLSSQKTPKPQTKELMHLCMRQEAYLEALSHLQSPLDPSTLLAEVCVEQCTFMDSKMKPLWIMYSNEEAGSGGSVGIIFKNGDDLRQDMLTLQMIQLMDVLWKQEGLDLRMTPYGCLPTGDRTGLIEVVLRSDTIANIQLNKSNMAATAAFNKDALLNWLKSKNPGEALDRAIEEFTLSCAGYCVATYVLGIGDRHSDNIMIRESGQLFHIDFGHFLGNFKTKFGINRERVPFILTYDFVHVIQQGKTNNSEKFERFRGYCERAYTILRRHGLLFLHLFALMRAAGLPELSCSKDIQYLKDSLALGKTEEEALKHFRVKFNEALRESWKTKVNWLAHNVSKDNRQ
T1 sequence (P27986 whole entry partner): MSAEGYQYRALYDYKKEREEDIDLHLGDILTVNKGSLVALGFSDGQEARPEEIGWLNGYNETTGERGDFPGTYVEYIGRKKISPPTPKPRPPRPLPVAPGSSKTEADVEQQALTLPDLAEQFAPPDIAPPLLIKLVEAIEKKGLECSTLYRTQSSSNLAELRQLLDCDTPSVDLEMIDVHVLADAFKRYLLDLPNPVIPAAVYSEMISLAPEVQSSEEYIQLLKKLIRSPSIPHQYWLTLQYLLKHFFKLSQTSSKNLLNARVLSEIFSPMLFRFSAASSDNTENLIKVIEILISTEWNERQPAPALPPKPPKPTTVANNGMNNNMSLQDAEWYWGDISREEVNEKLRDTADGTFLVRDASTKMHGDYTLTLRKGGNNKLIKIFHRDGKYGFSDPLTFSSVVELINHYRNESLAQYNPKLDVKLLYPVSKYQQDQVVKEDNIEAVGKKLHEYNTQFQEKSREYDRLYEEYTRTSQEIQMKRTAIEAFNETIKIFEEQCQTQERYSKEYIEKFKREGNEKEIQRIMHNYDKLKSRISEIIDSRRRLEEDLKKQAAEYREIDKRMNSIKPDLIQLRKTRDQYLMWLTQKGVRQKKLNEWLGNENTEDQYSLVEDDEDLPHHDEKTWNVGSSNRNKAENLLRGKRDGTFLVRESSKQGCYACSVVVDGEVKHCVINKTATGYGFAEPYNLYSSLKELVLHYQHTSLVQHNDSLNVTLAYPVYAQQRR

One experiment has as its target T1, PI3Kδ (Homo sapiens, UniProt O00329).
T1 construct: Full length p110 subunits of PI3k α, β and δ, N-terminally labeled with polyHis tag; polyHis (N); made in house; host or cells: Sf9 insect cells (baculovirus)
Nature of the experiment: PI3Kδ Alphascreen assay. The class given is biochemical.
Conditions: not given
On the procedure: Full length p110 subunits of PI3k α, β and δ, N-terminally labeled with polyHis tag, were coexpressed with p85 with Baculo virus expression vectors in sf9 insect cells. P110/p85 heterodimers were purified by sequential Ni-NTA, Q-HP, Superdex-100 chromatography. Purified α, β and δ isozymes were stored at −20° C. in 20 mM Tris, pH 8, 0.2M NaCl, 50% glycerol, 5 mM DTT, 2 mM Na cholate. […] The γ isozyme was purified by sequential Ni-NTA, Superdex-200, Q-HP chromatography. The γ isozyme was stored frozen at −80° C. in NaH2PO4, pH 8, 0.2M NaCl, 1% ethylene glycol, 2 mM β-mercaptoethanol.
A PI3K Alphascreen® assay (PerkinElmer, Waltham, Mass.) was used to measure the activity of a panel of four phosphoinositide 3-kinases: PI3Kα, PI3Kβ, PI3Kγ, and PI3Kδ. Enzyme reaction buffer was prepared using sterile water (Baxter, Deerfield, Ill.) and 50 mM Tris HCl pH 7, 14 mM MgCl2, 2 mM sodium cholate, and 100 mM NaCl. 2 mM DTT was added fresh the day of the experiment. The Alphascreen buffer was made using sterile water and 10 mM Tris HCl pH 7.5, 150 mM NaCl, 0.10% Tween 20, and 30 mM EDTA. 1 mM DTT was added fresh the day of the experiment. Compound source plates used for this assay were 384-well Greiner clear polypropylene plates containing test compounds at 5 mM and diluted 1:2 over 22 concentrations. Columns 23 and 24 contained only DMSO as these wells comprised the positive and negative controls, respectively. Source plates were replicated by transferring 0.5 uL per well into 384-well Optiplates (PerkinElmer, Waltham, Mass.).
Each PI3K isoform was diluted in enzyme reaction buffer to 2× working stocks. […] PI(4,5)P2 (Echelon Biosciences, Salt Lake City, Utah) was diluted to 10 μM and ATP was diluted to 20 μM. This 2× stock was used in the assays for PI3Kα and PI3Kβ. For assay of PI3Kγ and PI3Kδ, PI(4,5)P2 was diluted to 10 μM and ATP was diluted to 8 μM to prepare a similar 2× working stock. Alphascreen reaction solutions were made using beads from the anti-GST Alphascreen kit (PerkinElmer, Waltham, Mass.). Two 4× working stocks of the Alphascreen reagents were made in Alphascreen reaction buffer. In one stock, biotinylated-IP4 (Echelon Biosciences, Salt Lake City, Utah) was diluted to 40 nM and streptavidin-donor beads were diluted to 80 μg/mL. In the second stock, PIP3-binding protein (Echelon Biosciences, Salt Lake City, Utah) was diluted to 40 nM and anti-GST-acceptor beads were diluted to 80 μg/mL.
10 μL/well of the appropriate substrate 2× stock (containing 20 μM ATP for the PI3Kα and β assays and containing 8 μM ATP for the PI3Kγ and δ assays) was then added to Columns 1-24 of all plates. Plates were then incubated at room temperature for 20 minutes. In the dark, 10 μL/well of the donor bead solution was added to columns 1-24 of the plates to quench the enzyme reaction. The plates were incubated at room temperature for 30 minutes. Still in the dark, 10 μL/well of the acceptor bead solution was added to columns 1-24 of the plates. The plates were then incubated in the dark for 1.5 hours. The plates were read on an Envision multimode Plate Reader (PerkinElmer, Waltham, Mass.) using a 680 nm excitation filter and a 520-620 nm emission filter.
With `CC(Nc1ncnc(N)c1C#N)c1nc2ccncc2cc1-c1ccccn1` (racemic) [4-Amino-6-(((1S, 1R)-1-(3-(2-pyridinyl)-1,6-naphthyridin-2-yl)ethyl)amino)-5-pyrimidinecarbonitrile], the affinity corresponds to a Ki of 470 nM.

As to `CC(Nc1ncnc(N)c1C#N)c1nc2ncccc2cc1-c1ccccn1` (racemic) [4-Amino-6-(((1S, 1R)-1-(3-(2-pyridinyl)-1,8-naphthyridin-2-yl)ethyl)amino)-5-pyrimidinecarbonitrile], the Ki (in general, the dissociation constant of the complex between target and ligand, obtained from inhibition or displacement) came out at 225 nM.

On to `CC(Nc1ncnc2[nH]cnc12)c1nc2ccc(F)cc2cc1-c1ccccn1` (racemic) [N-(1-(6-Fluoro-3-(pyridin-2-yl)quinolin-2-yl)ethyl)-9H-purin-6-amine], for which the inhibitory constant (Ki) stood at 21.3 nM.

`C[C@@H](Nc1ncnc(N)c1C#N)c1nc2ccc(F)cc2c(C(=O)N(C)C)c1-c1ccccn1` (stereo in doubt) [2-(1-((6-Amino-5-cyano-4-pyrimidinyl)amino)ethyl)-6-fluoro-N,N-dimethyl-3-(2-pyridinyl)-4-quinolinecarboxamide] had an inhibition constant (Ki) of 7.77 nM.

Regarding `CC(Nc1ncnc(N)c1C#N)c1nc2ccc(F)cc2c([S+]([O-])CCO)c1-c1ccccc1` (stereo in doubt) [4-Amino-6-(1-(6-fluoro-4-((R)-2-hydroxyethylsulfinyl)-3-phenylquinolin-2-yl)ethylamino)pyrimidine-5-carbonitrile], the Ki was determined as 2.48 nM.

`CC(Nc1ncnc(N)c1C#N)c1nc2ccc(F)cc2c(C(=O)O)c1-c1ccccn1` (stereo not shown) [2-1-((6-Amino-5-cyano-4-pyrimidinyl)amino)ethyl)-6-fluoro-3-(2-pyridinyl)-4-quinolinecarboxylic acid] yielded a Ki of 119 nM.

For `CC(Nc1ncnc(N)c1C#N)c1nc2ccc(F)cc2c(C(=O)O)c1-c1ccccc1` (stereo not shown) [2-(1-(6-Amino-5-cyanopyrimidin-4-ylamino)ethyl)-6-fluoro-3-phenylquinoline-4-carboxylic acid], the Ki was 74.2 nM.

In turn, `CC(Nc1ncnc(N)c1C#N)c1nc2ccc(F)cc2c(C(=O)NCC2CC2)c1-c1ccccc1` (stereo not shown) [2-(1-(6-Amino-5-cyanopyrimidin-4-ylamino)ethyl)-N-(cyclopropylmethyl)-6-fluoro-3-phenylquinoline-4-carboxamide] returned an inhibition constant (Ki) of 5.15 nM.

On to `CC(Nc1ncnc(N)c1C(N)=O)c1nc2ccc(F)cc2c(C(=O)O)c1-c1ccccc1` (stereo not shown) [2-(1-(6-amino-5-carbamoylpyrimidin-4-ylamino)ethyl)-6-fluoro-3-phenylquinoline-4-carboxylic acid], for which affinity was put at a Ki of 7.16 nM.

In turn, `CC(Nc1ncnc(N)c1C#N)c1nc2ccc(F)cc2c(C(=O)NCCN2CCOCC2)c1-c1ccccc1` (stereo not shown) [2-(1-((6-Amino-5-cyano-4-pyrimidinyl)amino)ethyl)-6-fluoro-N-(2-(4-morpholinyl)ethyl)-3-phenyl-4-quinolinecarboxamide] registered a Ki of 1.02 nM. This Ki is about 7-fold lower than that of the compound before.

With `C[C@@H](Nc1ncnc(N)c1C#N)c1nc2ccc(F)cc2c(C#N)c1-c1ccccc1` [2-((1R)-1-((6-Amino-5-cyano-4-pyrimidinyl)amino)ethyl)-6-fluoro-3-phenyl-4-quinolinecarbonitrile], the affinity corresponds to a Ki of 59.1 nM.

`C[C@@H](Nc1ncnc(N)c1C#N)c1nc2cccc(C#N)c2cc1-c1ccccn1` [2-((1R)-1-((6-amino-5-cyano-4-pyrimidinyl)amino)ethyl)-3-(2-pyridinyl)-5-quinolinecarbonitrile]: the inhibition constant (Ki) was 2640 nM.

For `C[C@H](Nc1ncnc(N)c1C#N)c1nc2cccc(C#N)c2cc1-c1ccccn1` [2-((1S)-1-((6-Amino-5-cyano-4-pyrimidinyl)amino)ethyl)-3-(2-pyridinyl)-5-quinolinecarbonitrile], the Ki turned out to be 14.1 nM.

The compound `C[C@@H](c1nc2ccc(F)cc2cc1-c1cncc(F)c1)n1nc(C#N)c2c(N)ncnc21` [4-Amino-1-((S)-1-(6-fluoro-3-(5-fluoropyridin-3-yl)quinolin-2-yl)ethyl)-1H-pyrazolo[3,4-d]pyrimidine-3-carbonitrile] gave an inhibition constant Ki of 25 nM.

On to `CC(Nc1ncnc(N)c1C#N)c1nc2ccc(F)cc2c(S(C)(=O)=O)c1-c1cc(F)cc(F)c1` (stereo not shown) [4-Amino-6-(1-(3-(3,5-difluorophenyl)-6-fluoro-4-(methylsulfonyl)quinolin-2-yl)ethylamino)pyrimidine-5-carbonitrile], for which the affinity corresponds to a Ki of 1.12 nM.

For the compound `CC(Nc1ncnc(N)c1C#N)c1nc2ccc(F)cc2c(N2CC(O)C2)c1-c1ccccn1` (stereo not shown) [4-Amino-6-(1-(6-fluoro-4-(3-hydroxyazetidin-1-yl)-3-(pyridin-2-yl)quinolin-2-yl)ethylamino)pyrimidine-5-carbonitrile], the affinity corresponds to a Ki of 1.78 nM.

As for `COCCNc1c(-c2ccccc2)c(C(C)Nc2ncnc(N)c2C#N)nc2ccc(F)cc12` (stereo not shown) [4-Amino-6-(1-(6-fluoro-4-((2-methoxyethyl)amino)-3-phenyl-2-quinolinyl)-ethyl)amino)-5-pyrimidinecarbonitrile], the affinity, expressed as Ki, was 1.35 nM.

In the case of `CC(Nc1ncnc(N)c1C#N)c1nc2ccc(F)cc2c(CS(C)(=O)=O)c1-c1ccccc1` (stereo not shown) [4-Amino-6-(1-(6-fluoro-4-(methylsulfonylmethyl)-3-phenylquinolin-2-yl)-ethylamino)pyrimidine-5-carbonitrile], the affinity, expressed as Ki, was 1.38 nM. The Ki values of the last two compounds are within 1.5-fold of each other.

Compound `CC(Nc1ncnc(N)c1C#N)c1nc2ccc(F)cc2c(C(=O)N2CCCC2)c1-c1ccccc1` (stereo not shown) [4-Amino-6-((1-(6-fluoro-3-phenyl-4-(1-pyrrolidinylcarbonyl)-2-quinolinyl)-ethyl)amino)-5-pyrimidinecarbonitrile] displayed a Ki of 7.06 nM.

`CC(Nc1ncnc(N)c1C#N)c1nc2ccc(F)cc2c(NCCS(C)(=O)=O)c1-c1ccccc1` (stereo not shown) [4-Amino-6-((1-(6-fluoro-4-((2-(methylsulfonyl)ethyl)amino)-3-phenyl-2-quinolinyl)ethyl)amino)-5-pyrimidinecarbonitrile] yielded a Ki of 0.463 nM.

For the compound `CC(Nc1ncnc(N)c1C#N)c1nc2ccc(F)cc2c(NCCO)c1-c1ccccc1` (stereo not shown) [4-Amino-6-((1-(6-fluoro-4-((2-hydroxyethyl)amino)-3-phenyl-2-quinolinyl)ethyl)amino)-5-pyrimidinecarbonitrile], the Ki is 0.396 nM.

`COC1CN(C(=O)c2c(-c3ccccc3)c(C(C)Nc3ncnc(N)c3C#N)nc3ccc(F)cc23)C1` (stereo not shown) [4-Amino-6-((1-(6-fluoro-4-((3-methoxy-1-azetidinyl)carbonyl)-3-phenyl-2-quinolinyl)ethyl)amino)-5-pyrimidinecarbonitrile] registered a Ki of 1.75 nM.

With `CC(Nc1ncnc(N)c1C#N)c1nc2ccc(F)cc2c(C(=O)N2CCN(C)CC2)c1-c1ccccc1` (stereo not shown) [4-Amino-6-((1-(6-fluoro-4-((4-methyl-1-piperazinyl)carbonyl)-3-phenyl-2-quinolinyl)ethyl)amino)-5-pyrimidinecarbonitrile], the affinity, expressed as Ki, was 1.32 nM. This Ki and that of the compound before are within 1.5-fold of each other.

As to `CC(Nc1ncnc(N)c1C#N)c1nc2ccc(F)cc2c(C(=O)N2CC[C@@H](O)C2)c1-c1ccccc1` (stereo partly drawn) [4-Amino-6-((1-(6-fluoro-4-(((3R)-3-hydroxy-1-pyrrolidinyl)carbonyl)-3-phenyl-2-quinolinyl)ethyl)amino)-5-pyrimidinecarbonitrile], the inhibition constant Ki came to 25.6 nM.

The compound `N#Cc1c(N)ncnc1NCc1nc2cccc(F)c2cc1-c1cc(F)cc(F)c1` [4-Amino-6-((3-(3,5-difluorophenyl)-5-fluoroquinolin-2-yl)methylamino)pyrimidine-5-carbonitrile] showed a Ki of 246 nM.

For `CS(=O)(=O)c1ccccc1-c1cc2c(F)cccc2nc1CNc1ncnc(N)c1C#N` [4-Amino-6-((5-fluoro-3-(2-(methylsulfonyl)phenyl)quinolin-2-yl)methylamino)pyrimidine-5-carbonitrile], the Ki was found to be 39 nM. Compared with the last compound, the Ki is about 6.3-fold lower.

`N#Cc1c(N)ncnc1NCc1nc2cccc(F)c2cc1-c1cccc(F)c1` [4-Amino-6-((5-fluoro-3-(3-fluorophenyl)quinolin-2-yl)methylamino)pyrimidine-5-carbonitrile] gave an inhibitory constant (Ki) of 102 nM.

The experiment is the same for the next values; noted with them: listed as 4-amino-6-(-1-(6-fluoro-4-(((3R)-3-hydroxy-1-pyrrolidinyl)-carbonyl)-3-phenyl-2)).
Take `CC(Nc1ncnc(N)c1C#N)c1nc2ccc(F)cc2c(C(=O)N2CC[C@@H](O)C2)c1-c1ccccc1` (stereo partly drawn) [4-Amino-6-((1-(6-fluoro-4-(((3R)-3-hydroxy-1-pyrrolidinyl)carbonyl)-3-phenyl-2-quinolinyl)ethyl)amino)-5-pyrimidinecarbonitrile]: the Ki was 5.07 nM.
